Test results: PubChem BioAssay (NCI)
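1) Cells in 96-well plates. 2) Compound, 48 h, 5 concentrations. 3) Linear interpolation between surrounding doses. 4) Unreached endpoint = highest concentration. At the TGI there is no net growth.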

These compounds were tested on HOP-92 NSCLC (assay: NCI-60 cell line screen, 48 h).

Row | SMILES | TGI
1 | CCc1c(O)c(O)c(C(C)=O)c2c(O)c(-c3c(C)cc4c(CC)c(O)c(O)c(C(C)=O)c4c3O)c(C)cc12 | 10.4 µM
2 | CC(C)(C)OC(=O)NC(CSSCC(NC(=O)OC(C)(C)C)C(=O)O)C(=O)O (centres undefined) | > 100 µM
3 | COc1c(C)c(OCC=C(C)C)cc(CO)c1CO | > 100 µM
4 | COc1c2occc2c(N)c2ccc(=O)oc12 | > 100 µM
5 | CC(C)N1CCN(c2ccc(OCC3COC(Cn4cncn4)(c4ccc(Cl)cc4Cl)O3)cc2)CC1 (centres undefined) | 30.8 µM

The compounds below were run on HS 578T breast (assay: NCI-60 cell line screen, 48 h).

Row | SMILES | TGI
6 | C=CCn1c(=O)ccn(/C(=C/C(=O)OCC)C(=O)OCC)c1=O | 73.4 µM
7 | CC(C)(C)OC(=O)NC(CSSCC(NC(=O)OC(C)(C)C)C(=O)O)C(=O)O (centres undefined) | > 100 µM
8 | COc1c(C)c(OCC=C(C)C)cc(CO)c1CO | > 100 µM
9 | COc1c2occc2c(N)c2ccc(=O)oc12 | > 100 µM
10 | CC(C)N1CCN(c2ccc(OCC3COC(Cn4cncn4)(c4ccc(Cl)cc4Cl)O3)cc2)CC1 (centres undefined) | 31 µM

Each compound was assayed on HT29 colon (assay: NCI-60 cell line screen, 48 h).

Row | SMILES | TGI
11 | C=CCn1c(=O)ccn(/C(=C/C(=O)OCC)C(=O)OCC)c1=O | 27.9 µM
12 | [N-]=[N+]=NC1(c2ccccc2)C(=O)c2cccc3c2N(CCC3)C1=O (centres undefined) | > 100 µM
13 | CCc1c(O)c(O)c(C(C)=O)c2c(O)c(-c3c(C)cc4c(CC)c(O)c(O)c(C(C)=O)c4c3O)c(C)cc12 | 17.1 µM
14 | CC(C)(C)OC(=O)NC(CSSCC(NC(=O)OC(C)(C)C)C(=O)O)C(=O)O (centres undefined) | > 100 µM
15 | COc1c(C)c(OCC=C(C)C)cc(CO)c1CO | > 100 µM
16 | COc1c2occc2c(N)c2ccc(=O)oc12 | > 100 µM
17 | CC(C)N1CCN(c2ccc(OCC3COC(Cn4cncn4)(c4ccc(Cl)cc4Cl)O3)cc2)CC1 (centres undefined) | 13.4 µM
18 | CCCC(=O)OC[n+]1ccc2c(C)c3[nH]c4ccccc4c3c(C)c2c1 | > 100 µM

These compounds were tested on IGROV1 ovarian (assay: NCI-60 cell line screen, 48 h).

Row | SMILES | TGI
19 | C=CCn1c(=O)ccn(/C(=C/C(=O)OCC)C(=O)OCC)c1=O | 29.7 µM
20 | [N-]=[N+]=NC1(c2ccccc2)C(=O)c2cccc3c2N(CCC3)C1=O (centres undefined) | > 100 µM
21 | CC(C)(C)OC(=O)NC(CSSCC(NC(=O)OC(C)(C)C)C(=O)O)C(=O)O (centres undefined) | > 100 µM
22 | COc1c(C)c(OCC=C(C)C)cc(CO)c1CO | > 100 µM
23 | COc1c2occc2c(N)c2ccc(=O)oc12 | > 100 µM
24 | CC(C)N1CCN(c2ccc(OCC3COC(Cn4cncn4)(c4ccc(Cl)cc4Cl)O3)cc2)CC1 (centres undefined) | 33.6 µM

The compounds below were run on K-562 leukemia (assay: NCI-60 cell line screen, 48 h).

Row | SMILES | TGI
25 | C=CCn1c(=O)ccn(/C(=C/C(=O)OCC)C(=O)OCC)c1=O | 12.5 µM
26 | [N-]=[N+]=NC1(c2ccccc2)C(=O)c2cccc3c2N(CCC3)C1=O (centres undefined) | 89.4 µM
27 | CCc1c(O)c(O)c(C(C)=O)c2c(O)c(-c3c(C)cc4c(CC)c(O)c(O)c(C(C)=O)c4c3O)c(C)cc12 | 11.3 µM
28 | CC(C)(C)OC(=O)NC(CSSCC(NC(=O)OC(C)(C)C)C(=O)O)C(=O)O (centres undefined) | > 100 µM
29 | COc1c(C)c(OCC=C(C)C)cc(CO)c1CO | > 100 µM
30 | COc1c2occc2c(N)c2ccc(=O)oc12 | > 100 µM
31 | CC(C)N1CCN(c2ccc(OCC3COC(Cn4cncn4)(c4ccc(Cl)cc4Cl)O3)cc2)CC1 (centres undefined) | 19.8 µM
32 | CCCC(=O)OC[n+]1ccc2c(C)c3[nH]c4ccccc4c3c(C)c2c1 | > 100 µM

These compounds were tested on KM12 colon (assay: NCI-60 cell line screen, 48 h).

Row | SMILES | TGI
33 | C=CCn1c(=O)ccn(/C(=C/C(=O)OCC)C(=O)OCC)c1=O | 32.9 µM
34 | [N-]=[N+]=NC1(c2ccccc2)C(=O)c2cccc3c2N(CCC3)C1=O (centres undefined) | > 100 µM
35 | CCc1c(O)c(O)c(C(C)=O)c2c(O)c(-c3c(C)cc4c(CC)c(O)c(O)c(C(C)=O)c4c3O)c(C)cc12 | 11.7 µM
36 | CC(C)(C)OC(=O)NC(CSSCC(NC(=O)OC(C)(C)C)C(=O)O)C(=O)O (centres undefined) | > 100 µM
37 | COc1c(C)c(OCC=C(C)C)cc(CO)c1CO | > 100 µM
38 | COc1c2occc2c(N)c2ccc(=O)oc12 | > 100 µM
39 | CC(C)N1CCN(c2ccc(OCC3COC(Cn4cncn4)(c4ccc(Cl)cc4Cl)O3)cc2)CC1 (centres undefined) | 28.8 µM
40 | CCCC(=O)OC[n+]1ccc2c(C)c3[nH]c4ccccc4c3c(C)c2c1 | 1.8 µM

Each compound was assayed on KM20L2 colon (assay: NCI-60 cell line screen, 48 h).

Row | SMILES | TGI
41 | [N-]=[N+]=NC1(c2ccccc2)C(=O)c2cccc3c2N(CCC3)C1=O (centres undefined) | > 100 µM
42 | CCc1c(O)c(O)c(C(C)=O)c2c(O)c(-c3c(C)cc4c(CC)c(O)c(O)c(C(C)=O)c4c3O)c(C)cc12 | 17.6 µM

The compounds below were run on LOX IMVI melanoma (assay: NCI-60 cell line screen, 48 h).

Row | SMILES | TGI
43 | C=CCn1c(=O)ccn(/C(=C/C(=O)OCC)C(=O)OCC)c1=O | 18.1 µM
44 | CC(C)(C)OC(=O)NC(CSSCC(NC(=O)OC(C)(C)C)C(=O)O)C(=O)O (centres undefined) | > 100 µM
45 | COc1c(C)c(OCC=C(C)C)cc(CO)c1CO | > 100 µM
46 | COc1c2occc2c(N)c2ccc(=O)oc12 | > 100 µM
47 | CC(C)N1CCN(c2ccc(OCC3COC(Cn4cncn4)(c4ccc(Cl)cc4Cl)O3)cc2)CC1 (centres undefined) | 30.2 µM

The compounds below were run on LXFL 529 NSCLC (assay: NCI-60 cell line screen, 48 h).

Row | SMILES | TGI
48 | [N-]=[N+]=NC1(c2ccccc2)C(=O)c2cccc3c2N(CCC3)C1=O (centres undefined) | > 100 µM
49 | CCc1c(O)c(O)c(C(C)=O)c2c(O)c(-c3c(C)cc4c(CC)c(O)c(O)c(C(C)=O)c4c3O)c(C)cc12 | 16.5 µM

These compounds were tested on M14 melanoma (assay: NCI-60 cell line screen, 48 h).

Row | SMILES | TGI
50 | C=CCn1c(=O)ccn(/C(=C/C(=O)OCC)C(=O)OCC)c1=O | 28.1 µM
51 | [N-]=[N+]=NC1(c2ccccc2)C(=O)c2cccc3c2N(CCC3)C1=O (centres undefined) | > 100 µM
52 | CCc1c(O)c(O)c(C(C)=O)c2c(O)c(-c3c(C)cc4c(CC)c(O)c(O)c(C(C)=O)c4c3O)c(C)cc12 | 21.6 µM
53 | CC(C)(C)OC(=O)NC(CSSCC(NC(=O)OC(C)(C)C)C(=O)O)C(=O)O (centres undefined) | > 100 µM
54 | COc1c(C)c(OCC=C(C)C)cc(CO)c1CO | > 100 µM
55 | COc1c2occc2c(N)c2ccc(=O)oc12 | > 100 µM
56 | CC(C)N1CCN(c2ccc(OCC3COC(Cn4cncn4)(c4ccc(Cl)cc4Cl)O3)cc2)CC1 (centres undefined) | > 20 µM

What follows are compounds tested on M19-MEL melanoma (assay: NCI-60 cell line screen, 48 h).

Row | SMILES | TGI
57 | [N-]=[N+]=NC1(c2ccccc2)C(=O)c2cccc3c2N(CCC3)C1=O (centres undefined) | > 100 µM
58 | CCc1c(O)c(O)c(C(C)=O)c2c(O)c(-c3c(C)cc4c(CC)c(O)c(O)c(C(C)=O)c4c3O)c(C)cc12 | 30.8 µM
59 | CCCC(=O)OC[n+]1ccc2c(C)c3[nH]c4ccccc4c3c(C)c2c1 | > 100 µM

The compounds below were run on MALME-3M melanoma (assay: NCI-60 cell line screen, 48 h).

Row | SMILES | TGI
60 | C=CCn1c(=O)ccn(/C(=C/C(=O)OCC)C(=O)OCC)c1=O | 25.4 µM
61 | CCc1c(O)c(O)c(C(C)=O)c2c(O)c(-c3c(C)cc4c(CC)c(O)c(O)c(C(C)=O)c4c3O)c(C)cc12 | 31.5 µM
62 | CC(C)(C)OC(=O)NC(CSSCC(NC(=O)OC(C)(C)C)C(=O)O)C(=O)O (centres undefined) | > 100 µM
63 | COc1c2occc2c(N)c2ccc(=O)oc12 | > 100 µM
64 | CC(C)N1CCN(c2ccc(OCC3COC(Cn4cncn4)(c4ccc(Cl)cc4Cl)O3)cc2)CC1 (centres undefined) | 22.2 µM

The compounds below were run on MCF7 breast (assay: NCI-60 cell line screen, 48 h).

Row | SMILES | TGI
65 | C=CCn1c(=O)ccn(/C(=C/C(=O)OCC)C(=O)OCC)c1=O | 17.1 µM
66 | CC(C)(C)OC(=O)NC(CSSCC(NC(=O)OC(C)(C)C)C(=O)O)C(=O)O (centres undefined) | > 100 µM
67 | COc1c(C)c(OCC=C(C)C)cc(CO)c1CO | > 100 µM
68 | COc1c2occc2c(N)c2ccc(=O)oc12 | > 100 µM
69 | CC(C)N1CCN(c2ccc(OCC3COC(Cn4cncn4)(c4ccc(Cl)cc4Cl)O3)cc2)CC1 (centres undefined) | 28.9 µM

What follows are compounds tested on MDA-MB-231 breast (assay: NCI-60 cell line screen, 48 h).

Row | SMILES | TGI
70 | C=CCn1c(=O)ccn(/C(=C/C(=O)OCC)C(=O)OCC)c1=O | 26 µM
71 | CC(C)(C)OC(=O)NC(CSSCC(NC(=O)OC(C)(C)C)C(=O)O)C(=O)O (centres undefined) | > 100 µM
72 | COc1c(C)c(OCC=C(C)C)cc(CO)c1CO | > 100 µM
73 | COc1c2occc2c(N)c2ccc(=O)oc12 | > 100 µM
74 | CC(C)N1CCN(c2ccc(OCC3COC(Cn4cncn4)(c4ccc(Cl)cc4Cl)O3)cc2)CC1 (centres undefined) | 28.5 µM

Each compound was assayed on MDA-MB-435 (assay: NCI-60 cell line screen, 48 h).

Row | SMILES | TGI
75 | C=CCn1c(=O)ccn(/C(=C/C(=O)OCC)C(=O)OCC)c1=O | 26.2 µM
76 | CC(C)(C)OC(=O)NC(CSSCC(NC(=O)OC(C)(C)C)C(=O)O)C(=O)O (centres undefined) | > 100 µM
77 | COc1c(C)c(OCC=C(C)C)cc(CO)c1CO | > 100 µM
78 | COc1c2occc2c(N)c2ccc(=O)oc12 | > 100 µM
79 | CC(C)N1CCN(c2ccc(OCC3COC(Cn4cncn4)(c4ccc(Cl)cc4Cl)O3)cc2)CC1 (centres undefined) | 15.8 µM

These compounds were tested on MDA-N (assay: NCI-60 cell line screen, 48 h).

Row | SMILES | TGI
80 | C=CCn1c(=O)ccn(/C(=C/C(=O)OCC)C(=O)OCC)c1=O | 31.3 µM
81 | CC(C)(C)OC(=O)NC(CSSCC(NC(=O)OC(C)(C)C)C(=O)O)C(=O)O (centres undefined) | > 100 µM
82 | COc1c(C)c(OCC=C(C)C)cc(CO)c1CO | > 100 µM
83 | COc1c2occc2c(N)c2ccc(=O)oc12 | > 100 µM
84 | CC(C)N1CCN(c2ccc(OCC3COC(Cn4cncn4)(c4ccc(Cl)cc4Cl)O3)cc2)CC1 (centres undefined) | 16.6 µM

Each compound was assayed on MOLT-4 leukemia (assay: NCI-60 cell line screen, 48 h).

Row | SMILES | TGI
85 | C=CCn1c(=O)ccn(/C(=C/C(=O)OCC)C(=O)OCC)c1=O | 10.3 µM
86 | [N-]=[N+]=NC1(c2ccccc2)C(=O)c2cccc3c2N(CCC3)C1=O (centres undefined) | > 100 µM
87 | CC(C)(C)OC(=O)NC(CSSCC(NC(=O)OC(C)(C)C)C(=O)O)C(=O)O (centres undefined) | > 100 µM
88 | COc1c(C)c(OCC=C(C)C)cc(CO)c1CO | > 100 µM
89 | COc1c2occc2c(N)c2ccc(=O)oc12 | > 100 µM
90 | CC(C)N1CCN(c2ccc(OCC3COC(Cn4cncn4)(c4ccc(Cl)cc4Cl)O3)cc2)CC1 (centres undefined) | 28.8 µM
91 | CCCC(=O)OC[n+]1ccc2c(C)c3[nH]c4ccccc4c3c(C)c2c1 | 3.04 µM

Each compound was assayed on NCI-H226 lung (assay: NCI-60 cell line screen, 48 h).

Row | SMILES | TGI
92 | C=CCn1c(=O)ccn(/C(=C/C(=O)OCC)C(=O)OCC)c1=O | > 31.6 µM
93 | CC(C)(C)OC(=O)NC(CSSCC(NC(=O)OC(C)(C)C)C(=O)O)C(=O)O (centres undefined) | > 100 µM
94 | COc1c(C)c(OCC=C(C)C)cc(CO)c1CO | > 100 µM
